Measurements reported in patent US20260144788A1, “COMPOUND FOR SHP2 PROTEIN DEGRADATION AND MEDICAL USES THEREOF” (UBIX THERAPEUTICS, INC., priority 2022, published 2026).

Target: T1, SHP2 protein (Homo sapiens, UniProt Q06124)
T1 sequence (Q06124 1-593): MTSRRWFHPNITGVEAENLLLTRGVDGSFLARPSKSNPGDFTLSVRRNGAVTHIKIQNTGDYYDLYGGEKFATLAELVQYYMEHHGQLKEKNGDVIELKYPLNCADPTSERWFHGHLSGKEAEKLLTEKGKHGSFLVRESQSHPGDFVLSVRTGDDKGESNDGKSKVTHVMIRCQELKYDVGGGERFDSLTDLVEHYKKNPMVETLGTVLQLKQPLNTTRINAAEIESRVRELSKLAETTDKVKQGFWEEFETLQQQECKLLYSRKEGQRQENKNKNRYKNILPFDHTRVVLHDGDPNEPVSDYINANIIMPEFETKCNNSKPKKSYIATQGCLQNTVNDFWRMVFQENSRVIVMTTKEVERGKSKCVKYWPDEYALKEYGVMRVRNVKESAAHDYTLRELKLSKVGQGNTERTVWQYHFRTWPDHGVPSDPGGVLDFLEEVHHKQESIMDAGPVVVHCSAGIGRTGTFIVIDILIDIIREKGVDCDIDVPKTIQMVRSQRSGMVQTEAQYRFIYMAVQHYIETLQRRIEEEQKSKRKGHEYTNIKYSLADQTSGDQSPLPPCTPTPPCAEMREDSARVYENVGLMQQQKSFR
Assay: Measurement of SHP2 protein degradation in MV-4-11 cells (western blotting)
Assay type: cell-based
Set-up: endogenous in cells
Settings: harvested after 24 hours
Procedure: MV-4-11 cells were treated with the synthesized Example compounds, and the amount of SHP2 protein present in the cells was measured using western blotting detection. The protocol for the experiment conducted using MV-4-11 cells is as follows.
[Culture] MV-4-11 cells were resuspended in IMDM MEDIUM (Hyclone, SH30228.01), 5% FBS (Hyclone, SV30207.02), 1% Penicillin-streptomycin (Welgene, LS 202-02) media and seeded at 1×10^6/mL in 12-well plates (1 mL each).
[Compound treatment]12-well plates were treated as follows. 10 mM stock dissolved in DMSO was serially diluted 1/100 or 1/10 with media, and the compounds were treated to the cells at a final concentration of 0.01, 0.1, 1 μM or 0.001, 0.01, 0.1 μM, and harvested after 24 hours. For the negative control group, DMSO diluted 1/100 or 1/1000 in media was added (3 μL DMSO+297 μL media or 1 μL DMSO+999 μL media).
[Harvest] Each well was pipetted with a 1 mL pipette, collected in a 1.5 mL microtube, and centrifuged (500 g, 5 min, 4° C.). The supernatant was removed, washed with PBS, and centrifuged again (500 g, 5 min, 4° C.). The supernatant was removed and a pellet was prepared.
[Cell lysis and sample preparation] Lysis buffer was prepared as follows. RIPA buffer (Biosesang, RC2038-050-00)+0.5 mM PMSF (SIGMA, P7626)+1× Protease/Phosphatase Inhibitor (Cell signaling, 5872S) were added at 50 μL per tube and incubated on ice for 30 minutes (vortexed at 0 and 30 minutes). After sonication (10 sec pulse, 30 sec rest, 5 cycles, 70% amplification) and centrifugation (15,000 g, 15 min, 4° C.), only the supernatant was transferred to a microtube. RIPA buffer 7.5 μL and sample 2.5 μL were added to a 96-well plate to dilute to 1/4, and then BCA Protein Assay Kit (iNtRON, 21071) A and B were mixed in a 50:1 ratio and 200 μL each was added. After that, the plate was incubated at 37° C. for 30 minutes and left at room temperature for 10 minutes. After shaking for 10 seconds with a SYNERGY H1 microplate reader from BioTek, the absorbance was measured at 562 nm. The protein was quantified using the measured value to prepare a sample, which was then incubated at 70° C. for 10 minutes. The sample buffer used at this time is a mixture of NuPAGE or Bolt 4× sample buffer (Invitrogen) and each 10× sample reducing agent according to the gel to be used, and RIPA buffer was used for protein dilution.
[Western blotting detection] Equal amounts of samples were loaded onto NuPAGE or Bolt Bis-tris 4-12% gradient gels and run (200 V, 35 min). This was transferred to […] NC membranes using Trans-blot Turbo (BIO-RAD) (1.3 A constant, 25 V limit, 15 min), and was blocked at room temperature for 1 hour with Skim milk or Intercept Blocking Buffer (LI-COR, 927-60001):0.1% TBST=1:1. Anti-SHPTP2 Mouse (1:500 in 2% BSA/0.2% TBST, size: 70 kDa, Santacruz sc-7384) was incubated overnight at 4° C., and Anti-GAPDH Rabbit (1:2,000 in 2% BSA/0.2% TBST, size: 37 kDa, CST #2118) was incubated at room temperature for 1.5 hours or 3 hours. After washing three times for 5 minutes each with 0.2% TBST washing buffer, secondary antibodies Anti-Mouse IgG (1:5,000 in 2% BSA/0.2% TBST, CST) and IRDye® 680RD Goat anti-Rabbit IgG Secondary Antibody (1:10,000 in 2% BSA/0.2% TBST, LI-COR 926-68071) were added, and incubated on a rocker at room temperature for 45 minutes. The resultants were washed five times for 5 minutes each with 0.2% TBST washing buffer, and detected using LI-COR's Odyssey. GAPDH was detected with a 700 nm channel, and SHPTP2 was detected using SuperSignal West Pico PLUS Chemiluminescent Substrate.

Compound	SHP2% degradation (0.01 μM) [%]	SHP2% degradation (0.1 μM) [%]
Cc1ncsc1-c1ccc(CNC(=O)[C@@H]2C[C@@H](O)CN2C(=O)[C@@H](NC(=O)C2(F)CC2)C(C)(C)C)c(OC2CCN(C(=O)[C@H]3C[C@@H](Nc4nccc(Sc5cnc(N6CCC(C)(CN)CC6)cn5)c4Cl)C3)CC2)c1 [Example 59, (2S,4R)—N-(2-((1-((1s,3R)-3-((4-((5-(4-(aminomethyl)-4-methylpiperidin-1-yl)pyrazin-2-yl)thio)-3-chloropyridin-2-yl)amino)cyclobutanecarbonyl)piperidin-4-yl)oxy)-4-(4-methylthiazol-5-yl)benzyl)-1-((S)-2-(1-fluorocyclopropane-1-carboxamido)-3,3-dimethylbutanoyl)-4-hydroxypyrrolidine-2-carboxamide]	81.7	99.5
Cc1ncsc1-c1ccc(CNC(=O)[C@@H]2C[C@@H](O)CN2C(=O)[C@@H](NC(=O)C2(F)CC2)C(C)(C)C)c(O[C@H]2CC[C@H](C(=O)N3CC(Nc4cccc(Sc5cnc(N6CCC(C)(N)CC6)cn5)c4Cl)C3)CC2)c1 [Example 12, (2S,4R)—N-(2-(((1R,4S)-4-(3-((3-((5-(4-amino-4-methylpiperidin-1-yl)pyrazin-2-yl)thio)-2-chlorophenyl)amino)azetidine-1-carbonyl)cyclohexyl)oxy)-4-(4-methylthiazol-5-yl)benzyl)-1-((S)-2-(1-fluorocyclopropane-1-carboxamido)-3,3-dimethylbutanoyl)-4-hydroxypyrrolidine-2-carboxamide]	83.7	98.6
Cc1ncsc1-c1ccc(CNC(=O)[C@@H]2C[C@@H](O)CN2C(=O)[C@@H](NC(=O)C2(F)CC2)C(C)(C)C)c(O[C@H]2CC[C@H](C(=O)N3CC(Nc4nccc(Sc5cnc(N6CCC(C)(CN)CC6)cn5)c4Cl)C3)CC2)c1 [Example 20, (2S,4R)—N-(2-(((1R,4S)-4-(3-((4-((5-(4-(aminomethyl)-4-methylpiperidin-1-yl)pyrazin-2-yl)thio)-3-chloropyridin-2-yl)amino)azetidine-1-carbonyl)cyclohexyl)oxy)-4-(4-methylthiazol-5-yl)benzyl)-1-((S)-2-(1-fluorocyclopropane-1-carboxamido)-3,3-dimethylbutanoyl)-4-hydroxypyrrolidine-2-carboxamide]	78.8	98.2
Cc1ncsc1-c1ccc(CNC(=O)[C@@H]2C[C@@H](O)CN2C(=O)[C@@H](NC(=O)C2(F)CC2)C(C)(C)C)c(OC2CCN(C(=O)C3(F)CCN(c4nccc(Sc5cnc(N6CCC(C)(CN)CC6)cn5)c4Cl)CC3)CC2)c1 [Example 69, (2S,4R)—N-(2-((1-(1-(4-((5-(4-(aminomethyl)-4-methylpiperidin-1-yl)pyrazin-2-yl)thio)-3-chloropyridin-2-yl)-4-fluoropiperidine-4-carbonyl)piperidin-4-yl)oxy)-4-(4-methylthiazol-5-yl)benzyl)-1-((S)-2-(1-fluorocyclopropane-1-carboxamido)-3,3-dimethylbutanoyl)-4-hydroxypyrrolidine-2-carboxamide]	19.9	99.8
Cc1ncsc1-c1ccc(CNC(=O)[C@@H]2C[C@@H](O)CN2C(=O)[C@@H](NC(=O)C2(F)CC2)C(C)(C)C)c(OC2CCN(C(=O)C3CCN(c4nccc(Sc5cnc(N6CCC(C)(N)CC6)cn5)c4Cl)CC3)CC2)c1 [Example 66, (2S,4R)—N-(2-((1-(1-(4-((5-(4-amino-4-methylpiperidin-1-yl)pyrazin-2-yl)thio)-3-chloropyridin-2-yl)piperidine-4-carbonyl)piperidin-4-yl)oxy)-4-(4-methylthiazol-5-yl)benzyl)-1-((S)-2-(1-fluorocyclopropane-1-carboxamido)-3,3-dimethylbutanoyl)-4-hydroxypyrrolidine-2-carboxamide]	78.6	99.6

Other lines, results leading:

SHP2% degradation (0.01 μM) [%]	SHP2% degradation (0.1 μM) [%]	Compound
50.4	95.7	Cc1ncsc1-c1ccc(CNC(=O)[C@@H]2C[C@@H](O)CN2C(=O)[C@@H](NC(=O)C2(F)CC2)C(C)(C)C)c(O[C@H]2CC[C@H](C(=O)N3CCC(CNc4cccc(Sc5cnc(N6CCC(C)(CN)CC6)cn5)c4Cl)CC3)CC2)c1 [Example 19, (2S,4R)—N-(2-(((1R,4S)-4-(4-(((3-((5-(4-(aminomethyl)-4-methylpiperidin-1-yl)pyrazin-2-yl)thio)-2-chlorophenyl)amino)methyl)piperidine-1-carbonyl)cyclohexyl)oxy)-4-(4-methylthiazol-5-yl)benzyl)-1-((S)-2-(1-fluorocyclopropane-1-carboxamido)-3,3-dimethylbutanoyl)-4-hydroxypyrrolidine-2-carboxamide]
63.2	98.4	Cc1ncsc1-c1ccc(CNC(=O)[C@@H]2C[C@@H](O)CN2C(=O)[C@@H](NC(=O)C2(F)CC2)C(C)(C)C)c(O[C@H]2CC[C@H](C(=O)N3CC(CNc4cccc(Sc5cnc(N6CCC(C)(CN)CC6)cn5)c4Cl)C3)CC2)c1 [Example 18, (2S,4R)—N-(2-(((1R,4S)-4-(3-(((3-((5-(4-(aminomethyl)-4-methylpiperidin-1-yl)pyrazin-2-yl)thio)-2-chlorophenyl)amino)methyl)azetidine-1-carbonyl)cyclohexyl)oxy)-4-(4-methylthiazol-5-yl)benzyl)-1-((S)-2-(1-fluorocyclopropane-1-carboxamido)-3,3-dimethylbutanoyl)-4-hydroxypyrrolidine-2-carboxamide]
19	90.3	Cc1ncsc1-c1ccc(CNC(=O)[C@@H]2C[C@@H](O)CN2C(=O)[C@@H](NC(=O)C2(F)CC2)C(C)(C)C)c(OCCN2CCN(CCNc3cccc(Sc4cnc(N5CCC(C)(CN)CC5)cn4)c3Cl)C(=O)C2)c1 [Example 3, (2S,4R)—N-(2-(2-(4-(2-((3-((5-(4-(aminomethyl)-4-methylpiperidin-1-yl)pyrazin-2-yl)thio)-2-chlorophenyl)amino)ethyl)-3-oxopiperazin-1-yl)ethoxy)-4-(4-methylthiazol-5-yl)benzyl)-1-((S)-2-(1-fluorocyclopropane-1-carboxamido)-3,3-dimethylbutanoyl)-4-hydroxypyrrolidine-2-carboxamide]
